# Earlier results in patent US20090062391A1, “Use of a virucidal ointment in the nares for prevention of transmission and contraction of common colds” (priority 2007, published 2009).
# Assays:
# [1] = tested on: viruses which cause colds; settings: for effectiveness against viruses which cause colds: organic acid; for effectiveness at inactivating cold viruses: surfactant combined with organic acids
# rhinovirus [2] = settings: hand lotions containing 2% glutaric acid, versus placebo; Hayden et al. [6]
# herpes simplex virus = settings: Poli et al. [5]
# rhabdovirus = settings: Poli et al. [5]
# adenovirus = settings: Poli et al. [5]; only naked virus tested
# rhinovirus [3] = settings: Hendley et al. [4]
# common colds = settings: in vivo
# [4] = frequent application
compound,measurement,setting,value
CCCCC(=O)O [valeric acid],effectiveness against viruses which cause colds,[1],effective
O=C(O)CCCC(=O)O [glutaric acid],inactivating certain serotypes of rhinovirus,rhinovirus [2],more effective than placebo
CCCCCCCCCCCCOS(=O)(=O)[O-].[Na+] [sodium dodecyl sulfate],effectiveness at inactivating cold viruses,[1],demonstrated effectiveness
CCCCCCCCC(=O)O [pelargonic acid],effectiveness against viruses which cause colds,[1],effective
CC(=O)C(=O)O [pyruvic acid],antiviral activity against herpes simplex virus,herpes simplex virus,effective
same,antiviral activity against rhabdovirus,rhabdovirus,effective
same,antiviral activity against adenovirus,adenovirus,not effective
benzalkonium chloride,antiviral activity,rhinovirus [3],performed poorly
CCO [ethyl alcohol],antiviral activity,rhinovirus [3],performed poorly
O=C(O)CC(O)(CC(=O)O)C(=O)O [citric acid],antiviral activity against herpes simplex virus,herpes simplex virus,effective
same,antiviral activity against rhabdovirus,rhabdovirus,effective
same,antiviral activity against adenovirus,adenovirus,not effective
same,effectiveness against viruses which cause colds,[1],effective
O=C(O)CO [glycolic acid],effectiveness against viruses which cause colds,[1],effective
[Zn] [zinc],duration of common colds,common colds,shorten the duration
CC(O)C(=O)O (centres unmarked) [lactic acid],effectiveness against viruses which cause colds,[1],effective
N[C@@H](CC(=O)O)C(=O)O [aspartic acid],effectiveness against viruses which cause colds,[1],effective
O=C(O)CCC(=O)O [succinic acid],antiviral activity against herpes simplex virus,herpes simplex virus,effective
same,antiviral activity against rhabdovirus,rhabdovirus,effective
same,antiviral activity against adenovirus,adenovirus,not effective
II [iodine],irritation of the skin,[4],too irritating to the skin
CCCCCCCCOC(=O)CC(C(=O)OCCCCCCCC)S(=O)(=O)O.[Na] (centres unmarked) [sodium dioctyl sulfosuccinate],effectiveness at inactivating cold viruses,[1],demonstrated effectiveness
O=C(O)CC(O)C(=O)O (centres unmarked) [malic acid],antiviral activity against herpes simplex virus,herpes simplex virus,effective
same,antiviral activity against rhabdovirus,rhabdovirus,effective
same,antiviral activity against adenovirus,adenovirus,not effective
same,effectiveness against viruses which cause colds,[1],effective
